Results as given in patent publication US20180015065A1, “METHODS OF TREATING UREA CYCLE DISORDERS” (Horizon Therapeutics, LLC, priority 2013, published 2018).
Values joined by “and” are separate entries in the source; they are usually repeats but may differ in a detail not shown here. Identical values can stand only once. Like-named read-outs stand apart in the source and are kept apart here.

Experiments:
[1] = Spot urinary PAGN level by age group, all studies; type: in vivo, human; conditions: spot urine after overnight fast
Method: Subjects from all studies who had spot urine samples were divided into three age groups: less than 2 years of age; 2 to less than 6 years of age; and 6 years of age and older. Spot urine samples were collected from subjects after an overnight fast, and urinary PAGN levels were measured.

[2] = Spot urinary PAGN level by BSA group, subjects 2 years of age and older; type: in vivo, human
Method: Subjects in Example 4 from all UCD studies and the healthy volunteer study (HPN-100-010) who were 2 years of age and older were divided into two groups based on their BSA: less than or equal to 1.3 m^2 (≦1.3 m^2) and greater than 1.3 m^2 (>1.3 m^2). Spot urine samples were collected from subjects at 24 hours (i.e., after an overnight fast), and urinary PAGN levels were measured.

[3] = Spot urinary PAGN level by BSA group, all UCD studies and healthy volunteer study HPN-100-010; type: in vivo, human; conditions: spot urine at 24 hours after overnight fast
Method: Subjects from all UCD studies and the healthy volunteer study (HPN-100-010) were divided into two groups based on their BSA: less than or equal to 1.3 m^2 (≦1.3 m^2) and greater than 1.3 m^2 (>1.3 m^2). Spot urine samples were collected from subjects at 24 hours (i.e., after an overnight fast), and urinary PAGN levels were measured.

[4] = phase 1; dosages equivalent to the highest approved NaPBA dosage of 20 g/day; cited from earlier work
[5] = Spot urinary PAGN level by dose category, HPN-100-012 safety extension; type: in vivo, human; conditions: pediatric subjects under 6 years, spot urine at 0 hours after overnight fast
Method: Pediatric subjects under 6 years of age from the HPN-100-012 safety extension study were divided into three dosing groups: less than 6 mL/m^2, 6-10 mL/m^2, and greater than 10 mL/m^2. Spot urine samples were collected from subjects at 0 hours (i.e., after an overnight fast), and urinary PAGN levels were measured.

[6] = tested on: ammonia; conditions: cited from earlier work
[7] = BSA > 1.3 m^2, spot urine at 24 hours after overnight fast
[8] = BSA ≦ 1.3 m^2, spot urine at 24 hours after overnight fast

O=C(CCCc1ccccc1)OCC(COC(=O)CCCc1ccccc1)OC(=O)CCCc1ccccc1 [HPN-100, glyceryl tri-[4-phenylbutyrate]]
U-PAGN, 10th percentile ([1]; age group 2-<6 years): 1717 µg/mL | U-PAGN, 25th percentile ([1]; age group 2-<6 years): 5146 µg/mL | U-PAGN, 75th percentile ([1]; age group 2-<6 years): 20603 µg/mL | U-PAGN, 90th percentile ([1]; age group 2-<6 years): 27728 µg/mL | U-PAGN, maximum ([1]; age group 2-<6 years): 43372 µg/mL | U-PAGN, mean ([1]; age group 2-<6 years): 13420 µg/mL | U-PAGN, median ([1]; age group 2-<6 years): 12114 µg/mL | U-PAGN, minimum ([1]; age group 2-<6 years): 119 µg/mL | U-PAGN, 10th percentile ([1]; age group <2 years): 3265 µg/mL | U-PAGN, 25th percentile ([1]; age group <2 years): 8996 µg/mL | U-PAGN, 75th percentile ([1]; age group <2 years): 25019 µg/mL | U-PAGN, 90th percentile ([1]; age group <2 years): 28028 µg/mL | U-PAGN, maximum ([1]; age group <2 years): 44298 µg/mL | U-PAGN, mean ([1]; age group <2 years): 17330 µg/mL | U-PAGN, median ([1]; age group <2 years): 17229 µg/mL | U-PAGN, minimum ([1]; age group <2 years): 348 µg/mL | U-PAGN, 10th percentile ([1]; age group ≧6 years): 1564 µg/mL | U-PAGN, 25th percentile ([1]; age group ≧6 years): 4032 µg/mL | U-PAGN, 75th percentile ([1]; age group ≧6 years): 13846 µg/mL | U-PAGN, 90th percentile ([1]; age group ≧6 years): 21633 µg/mL | U-PAGN, maximum ([1]; age group ≧6 years): 60960 µg/mL | U-PAGN, mean ([1]; age group ≧6 years): 10103 µg/mL | U-PAGN, median ([1]; age group ≧6 years): 7185 µg/mL | U-PAGN, minimum ([1]; age group ≧6 years): 642 µg/mL | U-PAGN, 5th percentile [2, 7]: 3379.24 µg/mL | U-PAGN, 10th percentile [2, 7]: 4078.79 µg/mL | U-PAGN, 25th percentile [2, 7]: 5259 µg/mL and 5259.01 µg/mL | U-PAGN, 75th percentile [2, 7]: 11916.08 µg/mL | U-PAGN, 90th percentile [2, 7]: 15993.51 µg/mL | U-PAGN, 95th percentile [2, 7]: 20320.32 µg/mL | U-PAGN, maximum [2, 7]: 30304.04 µg/mL | U-PAGN, mean [2, 7]: 9058.68 µg/mL | U-PAGN, median [2, 7]: 7748.84 µg/mL | U-PAGN, minimum [2, 7]: 1157.49 µg/mL | U-PAGN, 5th percentile [2, 8]: 621.6 µg/mL | U-PAGN, 10th percentile [2, 8]: 3479.50 µg/mL | U-PAGN, 25th percentile [2, 8]: 7412 µg/mL and 7412.48 µg/mL | U-PAGN, 75th percentile [2, 8]: 23635.08 µg/mL | U-PAGN, 90th percentile [2, 8]: 29835.07 µg/mL | U-PAGN, 95th percentile [2, 8]: 33943.83 µg/mL | U-PAGN, maximum [2, 8]: 43372.15 µg/mL | U-PAGN, mean [2, 8]: 16186.11 µg/mL | U-PAGN, median [2, 8]: 15869.85 µg/mL | U-PAGN, minimum [2, 8]: 119.5 µg/mL | U-PAGN, 5th percentile ([3]; BSA > 1.3 m^2): 3379.24 µg/mL | U-PAGN, 10th percentile ([3]; BSA > 1.3 m^2): 4078.79 µg/mL | U-PAGN, 25th percentile ([3]; BSA > 1.3 m^2): 5259 µg/mL and 5259.01 µg/mL | U-PAGN, 50th percentile ([3]; BSA > 1.3 m^2): 7748.84 µg/mL | U-PAGN, 75th percentile ([3]; BSA > 1.3 m^2): 11916.08 µg/mL | U-PAGN, 90th percentile ([3]; BSA > 1.3 m^2): 15993.51 µg/mL | U-PAGN, 95th percentile ([3]; BSA > 1.3 m^2): 20320.32 µg/mL | U-PAGN, maximum ([3]; BSA > 1.3 m^2): 30304.04 µg/mL | U-PAGN, mean ([3]; BSA > 1.3 m^2): 9058.68 µg/mL | U-PAGN, minimum ([3]; BSA > 1.3 m^2): 1157.49 µg/mL | U-PAGN, 5th percentile ([3]; BSA ≦ 1.3 m^2): 1061.84 µg/mL | U-PAGN, 10th percentile ([3]; BSA ≦ 1.3 m^2): 3645.97 µg/mL | U-PAGN, 25th percentile ([3]; BSA ≦ 1.3 m^2): 8390 µg/mL and 8390.07 µg/mL | U-PAGN, 50th percentile ([3]; BSA ≦ 1.3 m^2): 17075.13 µg/mL | U-PAGN, 75th percentile ([3]; BSA ≦ 1.3 m^2): 25465.73 µg/mL | U-PAGN, 90th percentile ([3]; BSA ≦ 1.3 m^2): 30830 µg/mL | U-PAGN, 95th percentile ([3]; BSA ≦ 1.3 m^2): 35516.41 µg/mL | U-PAGN, maximum ([3]; BSA ≦ 1.3 m^2): 44298.26 µg/mL | U-PAGN, mean ([3]; BSA ≦ 1.3 m^2): 17547.48 µg/mL | U-PAGN, minimum ([3]; BSA ≦ 1.3 m^2): 119.47 µg/mL | Safety of administration [4]: established the safety | Urinary PAGN, 10th percentile ([5]; dose 6-10 mL/m^2): 1288 µg/mL | Urinary PAGN, 25th percentile ([5]; dose 6-10 mL/m^2): 3053 µg/mL | Urinary PAGN, 75th percentile ([5]; dose 6-10 mL/m^2): 20796 µg/mL | Urinary PAGN, 90th percentile ([5]; dose 6-10 mL/m^2): 24429 µg/mL | Urinary PAGN, mean ([5]; dose 6-10 mL/m^2): 12313 µg/mL | Urinary PAGN, median ([5]; dose 6-10 mL/m^2): 12144 µg/mL | Urinary PAGN, 10th percentile ([5]; dose <6 mL/m^2): 643 µg/mL | Urinary PAGN, 25th percentile ([5]; dose <6 mL/m^2): 1256 µg/mL | Urinary PAGN, 75th percentile ([5]; dose <6 mL/m^2): 14290 µg/mL | Urinary PAGN, 90th percentile ([5]; dose <6 mL/m^2): 20797 µg/mL | Urinary PAGN, mean ([5]; dose <6 mL/m^2): 8353 µg/mL | Urinary PAGN, median ([5]; dose <6 mL/m^2): 3298 µg/mL | Urinary PAGN, 10th percentile ([5]; dose >10 mL/m^2): 264 µg/mL | Urinary PAGN, 25th percentile ([5]; dose >10 mL/m^2): 6990 µg/mL | Urinary PAGN, 75th percentile ([5]; dose >10 mL/m^2): 26247 µg/mL | Urinary PAGN, 90th percentile ([5]; dose >10 mL/m^2): 28084 µg/mL | Urinary PAGN, mean ([5]; dose >10 mL/m^2): 16842 µg/mL | Urinary PAGN, median ([5]; dose >10 mL/m^2): 17089 µg/mL | Mean ammonia values ([6]; HPN-100-012 safety extension, pediatric UCD patients under six years): within normal limits | Ammonia control compared with NaPBA ([6]; phase 2 HPN-100-005, 11 pediatric UCD patients age six years and up, PBA equimolar dosage): at least equivalent to NaPBA | Ammonia control compared with NaPBA ([6]; phase 2 studies overall, equivalent dosages): at least equal to NaPBA | Ammonia control compared with NaPBA ([6]; phase 3 HPN-100-006, 45 adult UCD patients, PBA equivalent dosage): non-inferior to NaPBA | Mean ammonia levels ([6]; phase 3 extended dosing HPN-100-007 and HPN-100-005 safety extension, adult and pediatric UCD subjects): within normal limit
